# Tested on: nephritis induced by anti-GBM antiserum in wild type mouse
# Experiment: Nephritis induced by anti-GBM antiserum in wild type mice: amount of albumin in urine
# Assay type: in vivo
# Details: for amount of albumin in urine: urine collected 18 hours after final administration
# Protocol: Anti-GBM antiserum was administered to the wild type mice to induce nephritis, the mice were classified into three groups and the first group was administered with a peptide having an amino acid sequence of SLIGRL which is a selective stimulant for PAR-2 while the second group was administered with prednisolone which has been used as a treating agent for nephritis. In each group, administration was conducted once daily for consecutive seven days. The third group was a group which was not treated with a drug (control group). Further, for comparison, another untreated group where no anti-GBM antiserum was administered was prepared as the fourth group (in each group, n=6).
# Immediately after the final administration of the drug solution, urine was collected for 18 hours and the amount of albumin in urine was measured.
# In the same manner, anti-GBM antiserum was administered to the wild type mice to induce nephritis, the mice were classified into three groups and the first group was administered with ASKH95 which is a selective stimulant for PAR-2 while the second group was administered with prednisolone which has been used as a treating agent for nephritis. In each group, administration was conducted once daily for consecutive seven days. The third group was a group which was not treated with a drug (control group) (in each group, n=6).
# Nephritis was induced by a single administration of […] having about 16-fold of titer of antibody in an amount of 0.4 ml per mouse into tail vein (Jpn. J. Pharmacol., 33, 1145-1154, 1983). With regard to the amount of albumin in urine used as an index for nephritis, the amount of albumin in urine collected for 18 hours using a metabolic cage (manufactured by Sugiyamagen) was determined using an ELISA kit manufactured by Exocel and expressed in terms of μg/18 hours/100 g body weight. The resulting data were analyzed by a Student t-test and evaluated.
# (§1) Anti-GBM antiserum was administered to a wild type mouse and, immediately after that, 0.3 μmol/kg of SLIGRL which is a selective stimulant for PAR-2 dissolved in a phosphate buffer or 3 mg/kg of prednisolone suspended in 0.5% methyl cellulose solution was administered thereto once daily for consecutive seven days (in each group, n=6). SLIGRL was administered to tail vein with a dose of 1 ml/100 g body weight at the rate of 0.1 ml/second. Prednisolone was compulsorily administered per os with a dose of 1 ml/100 g body weight. As a control, a group which was not treated with a drug (control group) was set up. As from immediately after the final administration of the drug solution, urine was collected for 18 hours using a metabolic cage and the amount of albumin in urine was measured.
# as §1, with “In the same manner as example 3, anti-GBM” for “Anti-GBM”, “10 mg/kg” for “0.3 μmol/kg”, “ASKH95” for “SLIGRL”, “measured. Incidentally, ASKH95 is synthesized according to the literature (J. Clin. Invest. 111, 35-41, 2003), and used.” for “measured.”
compound,measurement,setting,value
2-furoyl-LIGKV-OH [ASKH95],effect on amount of albumin in urine compared with control group (in words),"Example 4, ASKH95 10 mg/kg to tail vein once daily for seven days",decreased significantly
same,amount of albumin in urine,"Example 4, ASKH95 10 mg/kg to tail vein once daily for seven days, control group 81319.0±8884.3",34709.6±8703.3 μg/18 hours/100 g body weight
C[C@]12C=CC(=O)C=C1CC[C@@H]1[C@@H]2[C@@H](O)C[C@@]2(C)[C@H]1CC[C@]2(O)C(=O)CO [prednisolone],amount of albumin in urine reduced to an extent of % of the control group,"Example 3, prednisolone 3 mg/kg per os once daily for seven days, not a significant suppression",52.7%
same,amount of albumin in urine,"Example 3, prednisolone 3 mg/kg per os once daily for seven days, control group 3528.5±1238.6",1670.6±579.4 μg/18 hours/100 g body weight
same,effect on amount of albumin in urine compared with control group (in words),"Example 4, prednisolone 3 mg/kg per os once daily for seven days",almost no effect
same,amount of albumin in urine,"Example 4, prednisolone 3 mg/kg per os once daily for seven days, control group 81319.0±8884.3",75692.1±12846.9 μg/18 hours/100 g body weight
SLIGRL,amount of albumin in urine,"Example 3, SLIGRL 0.3 μmol/kg to tail vein once daily for seven days, control group 3528.5±1238.6",104.2±54.0 μg/18 hours/100 g body weight
same,decrease of amount of albumin in urine,"Example 3, SLIGRL 0.3 μmol/kg to tail vein once daily for seven days, versus control group, significant",97.0%
